Measurements from BindingDB's records for doi:10.1158/1535-7163.MCT-07-0352 (Saic-Frederick, 2007).

target: T1, Broad substrate specificity ATP-binding cassette transporter ABCG2 (Homo sapiens, UniProt Q9UNQ0); assay: Screening Assay for ABCG2 Inhibitors; details: pH 7.4; 37 °C
T1 sequence (Q9UNQ0 whole entry): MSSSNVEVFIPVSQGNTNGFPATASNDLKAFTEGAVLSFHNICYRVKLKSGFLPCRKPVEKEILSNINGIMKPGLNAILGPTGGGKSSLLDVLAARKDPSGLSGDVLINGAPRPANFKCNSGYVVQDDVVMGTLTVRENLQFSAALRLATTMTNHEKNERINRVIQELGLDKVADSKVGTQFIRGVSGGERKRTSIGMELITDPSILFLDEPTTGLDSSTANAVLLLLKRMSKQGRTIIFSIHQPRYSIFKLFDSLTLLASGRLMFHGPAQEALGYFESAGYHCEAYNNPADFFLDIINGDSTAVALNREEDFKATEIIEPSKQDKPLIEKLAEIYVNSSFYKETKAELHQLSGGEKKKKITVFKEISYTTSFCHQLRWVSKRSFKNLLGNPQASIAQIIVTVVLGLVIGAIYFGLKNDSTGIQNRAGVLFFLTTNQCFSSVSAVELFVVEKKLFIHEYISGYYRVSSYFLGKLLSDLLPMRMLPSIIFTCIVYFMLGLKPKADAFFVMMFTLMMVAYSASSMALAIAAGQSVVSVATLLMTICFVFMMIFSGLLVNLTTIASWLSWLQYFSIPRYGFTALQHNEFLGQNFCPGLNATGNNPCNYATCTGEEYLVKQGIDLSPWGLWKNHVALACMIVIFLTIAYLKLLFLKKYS
Description: IC50 and maximal activities for inhibition of PhA accumulation were determined from dose-response curves. The accumulation of PhA, a fluorescent ABCG2 substrate, formed the basis of the assay for inhibitors of ABCG2 activity. NCI-H460/MX20 cells were transferred to black-walled, clear-bottomed 384-well polylysine-coated assay plates (Corning) and allowed to attach for several hours. PhA was added, immediately followed by compounds or vehicle (DMSO/PBS) control and incubated for an additional 18 h. After removal of medium and washing with PBS containing Ca2+ and Mg2+, fluorescence intensity was read on a Tecan Safire fluorescence plate reader in bottom read mode (395 nm excitation, 670 nm emission). Each plate had control wells containing Fumitremorgin C (FTC). Data were normalized to FTC and reported as the percentage of FTC fluorescence. Apparent IC50 values were calculated from dose-response data using SigmaPlot (SPSS, Inc., Chicago) 4-parameter logistic nonlinear regression analysis.

SMILES | IC50 [µM]
Cc1[nH]n(C(=O)c2ccncc2)c(=O)c1N=Nc1ccc2ccccc2c1 [NSC303769] | 5.8
CC1CCC2(OC1)OC1C(O)C3C4CCC5CC(OC6OC(CO)C(OC7OC(CO)C(O)C(OC8OCC(O)C(O)C8O)C7OC7OC(CO)C(O)C(OC8OC(CO)C(O)C(O)C8O)C7O)C(O)C6O)C(O)CC5(C)C4CCC3(C)C1C2C (stereo not given) [Digitonin] | 9.7
CC(C)C1(NC(=O)C2CC3c4cccc5[nH]cc(c45)CC3N(C)C2)OC2(O)C3CCCN3C(=O)C(Cc3ccccc3)N2C1=O (stereo not given) [Dihydroergocristine] | 11.8
Cc1ccc(NC(=O)c2cc3ccccc3cc2O)c(C)c1 [NSC306698] | 5.4
NN=C1C(OC(=O)Nc2cccc(Cl)c2)=Nc2ccccc21 [NSC320852] | 4.6
